Measurements reported in US20200061076A1, “METHODS OF TREATING LEUKODYSTROPHIES” (Ramot at Tel-Aviv University Ltd., priority 2017, published 2020).

Tests used:
Mut MEFs [1] = test: Survival under Tunicamycin-induced ER stress, Crystal Violet, MEFs; settings: Mut MEFs, 30 μM, 50 ng/ml Tunicamycin 22 hours (FIG. 20B)
Experimental: Mut MEFs were treated or not for 24 hours with the indicated concentrations of the indicated Sig-1R binders in the presence of 0.1 μg/ml Tunicamycin (Tun) during the last 22 hours. Following, the cells were washed, fixated and stained with Crystal Violet (CV) followed by measurement of absorbance at 570 nm. Shown is average % of CV staining relative to cells not treated with tunicamycin nor Sig-1R binder ±SEM of 3 independent experiments. *p<0.03.
Following, the cells were washed, fixated and stained with Crystal Violet and absorbance at 570 nm was measured. Data is presented relative to cells of the corresponding genotype not treated with p8G5 nor Tunicamycin. Shown is average % of CV staining ±SEM of 3 independent experiments.
Mut MEFs were treated or not for 24 hours with 10, 20 or 30 μM of the indicated Sig-1R binders in the presence of 50 ng/ml Tunicamycin (Tun) during the last 22 hours. Following, the cells were washed, fixated and stained with Crystal Violet (CV) followed by measurement of absorbance at 570 nm. Shown is % of CV staining relative to cells not treated with tunicamycin nor Sig-1R binder ±SEM of 3 independent experiments, *p<0.05.
Mut MEFs were incubated or not with the indicated concentrations of the indicated compounds for 2 hours followed by addition of 50 ng/ml Tunicamycin (Tun) for additional 22 hours, stained with Crystal Violet followed by measurement of absorbance at 570 nm. Shown is average normalized to Tun-treated cells without any compound ±SEM of 3 independent experiments. * not significant; ** p<0.02; *** all values p<0.04.

Mut MEFs [2] = test: Cell survival assay, Crystal violet staining, Mut MEFs; format: cell-based, mouse; settings: 24 hours, untreated cells set to 100%
Experimental: Cells were seeded on 96-wells plate at a density of 5000 cells per well. Astrocytes were seeded following coating with 0.001% PDL.

[3] = tested on: Hedgehog signaling pathway; test: Luciferase activity assay in Shh-LIGHT2 cells (Gli1-controlled Firefly / constitutive Renilla); format: cell-based
Experimental: Following lysis, luminescence was measured using the Dual Luciferase assay kit (Promega) followed by Firefly/Renilla luciferase ratio calculation for each treatment. Shown is average Firefly/Renilla luciferase activity ±SD of 3 independent experiments. *p<0.04. […] RNA was extracted from brains of P18 and P21 Mut and WT mice. cDNA was prepared by reverse transcription and subjected to qPCR using primers specific to Gli1 and GAPDH (SEQ ID NOs: 1-2 and 3-4, respectively). Relative quantity (RQ) was calculated by the ΔΔCt method. * p<0.02 [vs control (FIG. 11A) or vs SAG treated cells (FIG. 11B)].
Shh-LIGHT2 cells were seeded at a density of 10,000 cells per well in a 96-wells plate in growing medium. 24 hours post-plating the cells were incubated for additional 24 hours with the tested compounds in low serum media (0.5%) without G418 and Zeocin. Following lysis, Firefly and Renilla luminescence was measured using the Dual Luciferase assay kit (Promega) and a Veritas microplate luminometer (Turner Biosystems).
To test if p8C10 (H5), p8G7 (H9) and p9E6 (H15) compounds that were identified in the screen indeed affect Hedgehog signaling, SHH-lightII cells which stably express an inducible Firefly-Luciferase reporter gene under the control of Gli1 (a read-out of Hedgehog activation) and constitutive Renilla-Luciferase for normalization purposes (Taipale et al. 2000) were used. […] Therefore, p9E6 was identified as an agonist. SHH activation is required for the first steps of oligodendrocyte differentiation, while a subsequent decrease in Hedgehog activity is needed for complete differentiation and myelin production (Bouslama-Oueghlani et al. 2012) and re-myelination (Samanta et al. 2015).

SMILES | cell survival following Tun-induced cell death (Mut MEFs [1]) | Survival (%) ± SEM Mut MEFs (Mut MEFs [2]; 10 μM) | Survival (%) ± SEM Mut MEFs (Mut MEFs [2]; 20 μM) | Survival (%) ± SEM Mut MEFs (Mut MEFs [2]; 30 μM) | also measured
COc1cccc(OCCCCCN2CCOCC2)c1 [Hit H8-6, 4-[5-(3-methoxyphenoxy)pentyl]morpholine] | most potent effect | 97 ± 5.1% | 92 ± 1.1% | 93 ± 5.2% | –
Cc1ccc(OCCCCN2CCOCC2)cc1C [Hit H8-5, 4-[4-(3,4-dimethylphenoxy)butyl]morpholine] | most potent effect | 92 ± 1.7% | 100 ± 4.4% | 98 ± 13.8% | –
Cc1ccc(OCCCCCN2CCOCC2)cc1C [Hit H8-2, 4-[5-(3,4-dimethylphenoxy)pentyl]morpholine] | most potent effect | 92 ± 4.2% | 94 ± 8.8% | 95 ± 13.1% | –
Cc1cccc(OCCCCCCN2CCOCC2)c1 [Hit H8-3, 4-[6-(3-methylphenoxy)hexyl]morpholine] | – | 100 ± 7.2% | 96 ± 4.1% | 88 ± 4.5% | –
Cc1cccc(OCCCCN2CCOCC2)c1 [Hit H8-4, 4-[4-(3-methylphenoxy)butyl]morpholine] | – | 92 ± 8.5% | 95 ± 4.2% | 98 ± 5.4% | –
C=CCn1c(-c2cc(OC)c(OC)c(OC)c2)nc2ccccc21 [Hit H5, 1-allyl-2-(3,4,5-trimethoxyphenyl)-1H-benzimidazole] | – | – | – | – | Firefly/Renilla luciferase expression (Hedgehog activation) ([3]; absence of SAG, 24 hours (FIG. 11A)): not able to activate the pathway; SAG-induced HH activity (Firefly/Renilla luciferase) ([3]; presence of SAG at 50 nM, 24 hours (FIG. 11B)): inhibited the SAG-induced HH activity
CNC1CCC(N(Cc2cccc(-c3ccncc3)c2)C(=O)c2sc3ccccc3c2Cl)CC1 (stereo not drawn) [SAG, reference compound] | – | – | – | – | Survival (%) ± SEM Mut MEFs (Mut MEFs [2]; 0.01 μM): 98 ± 2.1%; Survival (%) ± SEM Mut MEFs (Mut MEFs [2]; 0.05 μM): 92 ± 3.2%; Survival (%) ± SEM Mut MEFs (Mut MEFs [2]; 0.1 μM): 95 ± 2.1%; Survival (%) ± SEM Mut MEFs (Mut MEFs [2]; 1 μM): 68 ± 2.7%
